Results from patent US8129417B2, “Substituted octahydrocyclopenta[C]pyrrol-4-amines as calcium channel blockers” (Abbott Laboratories, priority 2008, dated 2012).

Target: human Cav2.2 (Homo sapiens, UniProt Q00975)
Assay: Assessment of calcium channel activity using FLIPR (Ca2+ influx in IMR32 cells)
Assay type: cell-based
Details: 2 μM nifedipine, depolarized with 80 mM KCl
Outline: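 IC50 came from sigmoidal non-linear regression of percent inhibition, relative to uninhibited activity, across compound concentrations. Calcium influx was measured by FLIPR in IMR32 cells plated at 1-1.2×10^5 cells/well and cultured 48 h at 37 °C.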

[1] = 60 minute pre-incubation with compound

human Cav2.2, sequence (Q00975 whole entry): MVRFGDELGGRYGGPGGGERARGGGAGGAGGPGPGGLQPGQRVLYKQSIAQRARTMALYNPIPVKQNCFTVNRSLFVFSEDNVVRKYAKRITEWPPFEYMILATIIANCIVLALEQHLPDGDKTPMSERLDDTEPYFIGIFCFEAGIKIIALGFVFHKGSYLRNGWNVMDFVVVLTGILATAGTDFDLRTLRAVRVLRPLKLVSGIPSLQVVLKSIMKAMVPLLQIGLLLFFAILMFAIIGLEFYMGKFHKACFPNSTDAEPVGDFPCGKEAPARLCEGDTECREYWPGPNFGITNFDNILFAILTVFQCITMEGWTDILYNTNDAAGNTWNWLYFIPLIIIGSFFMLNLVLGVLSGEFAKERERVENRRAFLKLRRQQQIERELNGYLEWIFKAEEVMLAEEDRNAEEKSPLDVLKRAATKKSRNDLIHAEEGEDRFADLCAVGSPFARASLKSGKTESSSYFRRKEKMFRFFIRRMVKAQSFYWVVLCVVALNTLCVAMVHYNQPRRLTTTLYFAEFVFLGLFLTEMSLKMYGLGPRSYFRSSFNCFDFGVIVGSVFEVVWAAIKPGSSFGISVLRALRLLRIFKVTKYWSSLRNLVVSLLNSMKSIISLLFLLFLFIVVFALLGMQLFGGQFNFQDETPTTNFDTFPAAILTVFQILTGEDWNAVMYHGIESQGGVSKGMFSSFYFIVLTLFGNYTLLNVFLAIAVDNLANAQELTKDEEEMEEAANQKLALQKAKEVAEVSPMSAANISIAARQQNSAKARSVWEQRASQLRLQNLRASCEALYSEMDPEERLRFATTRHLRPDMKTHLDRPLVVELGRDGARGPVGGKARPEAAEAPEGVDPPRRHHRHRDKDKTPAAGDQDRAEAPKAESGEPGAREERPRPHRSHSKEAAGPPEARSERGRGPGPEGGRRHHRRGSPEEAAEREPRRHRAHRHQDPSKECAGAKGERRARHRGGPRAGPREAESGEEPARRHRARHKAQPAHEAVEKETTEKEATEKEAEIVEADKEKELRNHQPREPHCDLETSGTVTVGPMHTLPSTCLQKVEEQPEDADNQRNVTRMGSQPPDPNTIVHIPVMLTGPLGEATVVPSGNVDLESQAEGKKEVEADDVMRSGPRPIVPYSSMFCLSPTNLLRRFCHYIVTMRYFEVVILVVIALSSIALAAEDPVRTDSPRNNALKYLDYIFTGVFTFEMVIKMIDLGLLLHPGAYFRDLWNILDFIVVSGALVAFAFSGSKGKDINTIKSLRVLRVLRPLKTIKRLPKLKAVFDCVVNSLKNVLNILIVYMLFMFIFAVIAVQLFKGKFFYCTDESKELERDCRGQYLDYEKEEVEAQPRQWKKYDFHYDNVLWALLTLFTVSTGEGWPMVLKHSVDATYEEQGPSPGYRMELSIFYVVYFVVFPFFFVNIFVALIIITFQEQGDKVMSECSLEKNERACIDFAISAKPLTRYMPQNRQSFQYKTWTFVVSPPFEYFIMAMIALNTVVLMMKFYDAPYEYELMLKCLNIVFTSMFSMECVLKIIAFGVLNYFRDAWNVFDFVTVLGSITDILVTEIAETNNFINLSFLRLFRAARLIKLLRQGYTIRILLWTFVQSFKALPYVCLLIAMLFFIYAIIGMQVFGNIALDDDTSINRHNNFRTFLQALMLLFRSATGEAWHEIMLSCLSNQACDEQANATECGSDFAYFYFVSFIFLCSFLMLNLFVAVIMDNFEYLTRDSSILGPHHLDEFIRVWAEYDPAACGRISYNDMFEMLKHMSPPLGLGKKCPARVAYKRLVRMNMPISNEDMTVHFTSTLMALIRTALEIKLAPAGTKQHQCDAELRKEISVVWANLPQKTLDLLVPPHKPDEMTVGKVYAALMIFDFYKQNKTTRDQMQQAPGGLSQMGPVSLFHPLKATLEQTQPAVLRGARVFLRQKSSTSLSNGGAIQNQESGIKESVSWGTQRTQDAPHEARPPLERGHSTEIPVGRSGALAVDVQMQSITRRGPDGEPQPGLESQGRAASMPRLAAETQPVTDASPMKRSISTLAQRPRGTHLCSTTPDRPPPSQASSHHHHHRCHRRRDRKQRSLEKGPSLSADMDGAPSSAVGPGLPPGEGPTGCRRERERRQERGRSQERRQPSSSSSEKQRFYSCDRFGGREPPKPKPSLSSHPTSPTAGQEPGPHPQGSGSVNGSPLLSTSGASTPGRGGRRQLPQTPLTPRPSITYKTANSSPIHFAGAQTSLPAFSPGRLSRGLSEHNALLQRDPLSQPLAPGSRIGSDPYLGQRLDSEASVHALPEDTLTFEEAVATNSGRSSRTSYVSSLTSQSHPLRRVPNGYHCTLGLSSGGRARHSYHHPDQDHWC
human Cav2.2, sequence (P54289 25-946 partner limits assumed): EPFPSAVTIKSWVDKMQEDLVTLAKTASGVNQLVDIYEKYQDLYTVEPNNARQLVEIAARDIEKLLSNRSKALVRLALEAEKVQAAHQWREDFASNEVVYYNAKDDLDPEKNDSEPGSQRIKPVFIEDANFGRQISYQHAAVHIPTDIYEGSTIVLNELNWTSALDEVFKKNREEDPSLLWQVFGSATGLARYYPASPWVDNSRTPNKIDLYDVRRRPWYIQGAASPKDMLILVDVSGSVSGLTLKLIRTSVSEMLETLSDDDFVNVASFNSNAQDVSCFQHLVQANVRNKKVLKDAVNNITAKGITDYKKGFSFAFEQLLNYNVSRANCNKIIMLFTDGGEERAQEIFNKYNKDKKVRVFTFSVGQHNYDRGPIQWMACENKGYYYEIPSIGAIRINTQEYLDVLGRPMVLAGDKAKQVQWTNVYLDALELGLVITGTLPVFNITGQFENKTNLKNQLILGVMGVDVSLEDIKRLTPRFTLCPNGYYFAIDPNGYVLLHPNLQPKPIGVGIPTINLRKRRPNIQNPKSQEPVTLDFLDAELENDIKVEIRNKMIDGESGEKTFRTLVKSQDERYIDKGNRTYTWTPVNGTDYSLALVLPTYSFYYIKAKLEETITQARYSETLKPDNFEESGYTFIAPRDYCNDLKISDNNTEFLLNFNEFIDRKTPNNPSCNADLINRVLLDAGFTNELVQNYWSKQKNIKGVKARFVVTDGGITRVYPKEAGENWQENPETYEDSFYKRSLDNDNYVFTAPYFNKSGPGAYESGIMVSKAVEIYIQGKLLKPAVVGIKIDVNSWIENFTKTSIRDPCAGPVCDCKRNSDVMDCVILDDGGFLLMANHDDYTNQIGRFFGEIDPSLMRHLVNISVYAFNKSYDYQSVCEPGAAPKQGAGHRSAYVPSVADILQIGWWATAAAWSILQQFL
human Cav2.2, sequence (P54289 947-1103 partner limits assumed): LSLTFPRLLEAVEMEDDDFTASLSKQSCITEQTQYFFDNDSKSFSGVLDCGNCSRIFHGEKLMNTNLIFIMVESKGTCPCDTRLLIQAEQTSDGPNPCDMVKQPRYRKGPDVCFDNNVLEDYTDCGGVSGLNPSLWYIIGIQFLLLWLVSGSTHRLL
human Cav2.2, sequence (P54284 whole entry partner): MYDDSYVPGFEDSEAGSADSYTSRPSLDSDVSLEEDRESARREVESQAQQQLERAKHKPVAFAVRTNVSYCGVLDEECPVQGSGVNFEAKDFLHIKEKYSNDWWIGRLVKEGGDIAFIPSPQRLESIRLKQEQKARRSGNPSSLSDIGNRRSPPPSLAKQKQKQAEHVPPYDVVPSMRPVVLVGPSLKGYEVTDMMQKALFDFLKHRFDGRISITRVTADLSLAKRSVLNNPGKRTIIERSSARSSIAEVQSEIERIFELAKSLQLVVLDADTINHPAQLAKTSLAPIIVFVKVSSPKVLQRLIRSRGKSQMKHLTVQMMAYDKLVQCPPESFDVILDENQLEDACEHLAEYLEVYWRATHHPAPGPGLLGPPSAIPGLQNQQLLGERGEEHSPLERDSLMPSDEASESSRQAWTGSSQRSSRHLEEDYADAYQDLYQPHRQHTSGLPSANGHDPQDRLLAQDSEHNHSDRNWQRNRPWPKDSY

IC50 [1] [nM]	Compound	IC50 (3 minute pre-incubation with compound (*)) [nM]
2900	CC(C)C[C@H](NS(=O)(=O)C(C)C)C(=O)N[C@@H]1CC[C@H]2CN(Cc3cccc(C(F)(F)F)c3)C[C@H]21 [Example 522, N^2-(isopropylsulfonyl)-N^1-{(3aS,4R,6aR)-2-[3-(trifluoromethyl)benzyl]octahydrocyclopenta[c]pyrrol-4-yl}-L-leucinamide]	
2070	CC(C)C[C@H](NS(=O)(=O)C1CCCC1)C(=O)N[C@@H]1CC[C@H]2CN(Cc3cccc(C(F)(F)F)c3)C[C@H]21 [Example 524, N^2-(cyclopentylsulfonyl)-N^1-{(3aS,4R,6aR)-2-[3-(trifluoromethyl)benzyl]octahydrocyclopenta[c]pyrrol-4-yl}-L-leucinamide]	
1390	CC(C)OC(=O)N[C@@H](CC(C)(C)C)C(=O)N[C@H]1CC[C@@H]2CN(Cc3ccc(C(F)(F)F)cc3)C[C@@H]21 [Example 525, Isopropyl (S)-4,4-dimethyl-1-oxo-1-((3aR,4S,6aS)-2-(4-(trifluoromethyl)benzyl)octahydrocyclopenta[c]pyrrol-4-ylamino)pentan-2-ylcarbamate]	
2770	CC(C)OC(=O)N[C@H](C(=O)N[C@H]1CC[C@@H]2CN(Cc3ccc(C(F)(F)F)cc3)C[C@@H]21)C(C)(C)C [Example 526, Isopropyl (S)-3,3-dimethyl-1-oxo-1-((3aR,4S,6aS)-2-(4-(trifluoromethyl)benzyl)octahydrocyclopenta[c]pyrrol-4-ylamino)butan-2-ylcarbamate]	
2290	CCC[C@H](NC(=O)OC1CCCC1)C(=O)N[C@H]1CC[C@@H]2CN(Cc3ccc(C(F)(F)F)cc3)C[C@@H]21 [Example 527, Cyclopentyl (S)-1-oxo-1-((3aR,4S,6aS)-2-(4-(trifluoromethyl)benzyl)octahydrocyclopenta[c]pyrrol-4-ylamino)pentan-2-ylcarbamate]	
7230	CCC[C@H](NC(=O)C(C)(C)C)C(=O)N[C@H]1CC[C@@H]2CN(Cc3ccc(C(F)(F)F)cc3)C[C@@H]21 [Example 528, N^2-(2,2-dimethylpropanoyl)-N^1-{(3aR,4S,6aS)-2-[4-(trifluoromethyl)benzyl]octahydrocyclopenta[c]pyrrol-4-yl}-L-norvalinamide]	
960	CCC[C@@H](C(=O)N[C@H]1CC[C@@H]2CN(S(=O)(=O)c3ccc(F)c(Cl)c3)C[C@@H]21)N(C)C(=O)OC(C)(C)C [Example 529, Tert-butyl (S)-1-((3aR,4S,6aS)-2-(3-chloro-4-fluorophenylsulfonyl)octahydrocyclopenta[c]pyrrol-4-ylamino)-1-oxopentan-2-yl(methyl)carbamate]	
7630	CCC[C@@H](C(=O)N[C@H]1CC[C@@H]2CN(S(=O)(=O)c3cccnc3)C[C@@H]21)N(C)C(=O)OC(C)(C)C [Example 530, Tert-butyl methyl((S)-1-oxo-1-((3aR,4S,6aS)-2-(pyridin-3-ylsulfonyl)octahydrocyclopenta[c]pyrrol-4-ylamino)pentan-2-yl)carbamate]	
6380	CCC[C@H](NC)C(=O)N[C@H]1CC[C@@H]2CN(S(=O)(=O)c3ccc(F)c(Cl)c3)C[C@@H]21 [Example 534, N^1-{(3aR,4S,6aS)-2-[(3-chloro-4-fluorophenyl)sulfonyl]octahydrocyclopenta[c]pyrrol-4-yl}-N^2-methyl-L-norvalinamide]	
4390	CCC[C@H](NC)C(=O)N[C@H]1CC[C@@H]2CN(S(=O)(=O)c3ccc(F)cc3Cl)C[C@@H]21 [Example 539, N^1-{(3aR,4S,6aS)-2-[(2-chloro-4-fluorophenyl)sulfonyl]octahydrocyclopenta[c]pyrrol-4-yl}-N^2-methyl-L-norvalinamide]	
1670	CCC[C@H](NC)C(=O)N[C@H]1CC[C@@H]2CN(S(=O)(=O)c3cccc4ccccc34)C[C@@H]21 [Example 540, N^2-methyl-N^1-[(3aR,4S,6aS)-2-(1-naphthylsulfonyl)octahydrocyclopenta[c]pyrrol-4-yl]-L-norvalinamide]	
2570	CCC[C@H](NC)C(=O)N[C@H]1CC[C@@H]2CN(S(=O)(=O)c3ccc(Br)c(C(F)(F)F)c3)C[C@@H]21 [Example 541, N^1-((3aR,4S,6aS)-2-{[4-bromo-3-(trifluoromethyl)phenyl]sulfonyl}octahydrocyclopenta[c]pyrrol-4-yl)-N^2-methyl-L-norvalinamide]	
2360	CCC[C@H](NC)C(=O)N[C@H]1CC[C@@H]2CN(S(=O)(=O)c3ccc(Cl)c(Cl)c3)C[C@@H]21 [Example 542, N^1-{(3aR,4S,6aS)-2-[(3,4-dichlorophenyl)sulfonyl]octahydrocyclopenta[c]pyrrol-4-yl}-N^2-methyl-L-norvalinamide]	
2150	CCC[C@H](NC)C(=O)N[C@H]1CC[C@@H]2CN(S(=O)(=O)c3ccc(-c4ccccc4)cc3)C[C@@H]21 [Example 544, N^1-[(3aR,4S,6aS)-2-(1,1′-biphenyl-4-ylsulfonyl)octahydrocyclopenta[c]pyrrol-4-yl]-N^2-methyl-L-norvalinamide]	
6320	CCC[C@H](NC)C(=O)N[C@H]1CC[C@@H]2CN(S(=O)(=O)c3cccc(C#N)c3)C[C@@H]21 [Example 546, N^1-{(3aR,4S,6aS)-2-[(3-cyanophenyl)sulfonyl]octahydrocyclopenta[c]pyrrol-4-yl}-N^2-methyl-L-norvalinamide]	
1050	CCC[C@H](NC)C(=O)N[C@H]1CC[C@@H]2CN(S(=O)(=O)c3cccc(Cl)c3Cl)C[C@@H]21 [Example 548, N^1-{(3aR,4S,6aS)-2-[(2,3-dichlorophenyl)sulfonyl]octahydrocyclopenta[c]pyrrol-4-yl}-N^2-methyl-L-norvalinamide]	
2570	CCC[C@H](NC)C(=O)N[C@H]1CC[C@@H]2CN(S(=O)(=O)c3ccccc3C(F)(F)F)C[C@@H]21 [Example 550, N^2-methyl-N^1-((3aR,4S,6aS)-2-{[2-(trifluoromethyl)phenyl]sulfonyl}octahydrocyclopenta[c]pyrrol-4-yl)-L-norvalinamide]	
2490	CCC[C@H](NC)C(=O)N[C@H]1CC[C@@H]2CN(S(=O)(=O)c3cccc(Br)c3)C[C@@H]21 [Example 551, N^1-{(3aR,4S,6aS)-2-[(3-bromophenyl)sulfonyl]octahydrocyclopenta[c]pyrrol-4-yl}-N^2-methyl-L-norvalinamide]	
780	CCC[C@H](NC)C(=O)N[C@H]1CC[C@@H]2CN(S(=O)(=O)c3ccc(C(F)(F)F)cc3Cl)C[C@@H]21 [Example 552, N^1-((3aR,4S,6aS)-2-{[2-chloro-4-(trifluoromethyl)phenyl]sulfonyl}octahydrocyclopenta[c]pyrrol-4-yl)-N^2-methyl-L-norvalinamide]	
1940	CCC[C@H](NC)C(=O)N[C@H]1CC[C@@H]2CN(S(=O)(=O)c3cc(C(F)(F)F)ccc3Cl)C[C@@H]21 [Example 553, N^1-((3aR,4S,6aS)-2-{[2-chloro-5-(trifluoromethyl)phenyl]sulfonyl}octahydrocyclopenta[c]pyrrol-4-yl)-N^2-methyl-L-norvalinamide]	
2510	CC(C)N([C@H]1CC[C@@H]2CN(Cc3ccccc3)C[C@@H]21)S(=O)(=O)c1cccc(C(F)(F)F)c1 [Example 555, N-[(3aR,4S,6aS)-2-benzyloctahydrocyclopenta[c]pyrrol-4-yl]-N-isopropyl-3-(trifluoromethyl)benzenesulfonamide]	
2580	O=S(=O)(N[C@H]1CC[C@@H]2CN(Cc3ccccc3)C[C@@H]21)c1cccc(C(F)(F)F)c1 [Example 556, N-[(3aR,4S,6aS)-2-benzyloctahydrocyclopenta[c]pyrrol-4-yl]-3-(trifluoromethyl)benzenesulfonamide]	
1140	CN[C@@H](CC(C)C)C(=O)N1C[C@H]2CC[C@H](N(C(C)C)S(=O)(=O)c3cccc(C(F)(F)F)c3)[C@H]2C1 [Example 557, N-isopropyl-N-[(3aR,4S,6aS)-2-(N-methyl-L-leucyl)octahydrocyclopenta[c]pyrrol-4-yl]-3-(trifluoromethyl)benzenesulfonamide]	
4880	CN[C@@H](CC(C)C)C(=O)N1C[C@H]2CC[C@H](NS(=O)(=O)c3cccc(C(F)(F)F)c3)[C@H]2C1 [Example 558, N-[(3aR,4S,6aS)-2-(N-methyl-L-leucyl)octahydrocyclopenta[c]pyrrol-4-yl]-3-(trifluoromethyl)benzenesulfonamide]	
1680	CNC(CC(C)C)C(=O)N1CC2CCC(N(C3CC3)S(=O)(=O)c3cccc(C(F)(F)F)c3)C2C1 [Example 559, N-cyclopropyl-N-[(3aS*,4S*,6aR*)-[2-(N-methyl-L-leucyl)octahydrocyclopenta[c]pyrrol-4-yl]-3-(trifluoromethyl)benzenesulfonamide]	
1670	N-((3aR,4S,6aS)-2-{[2-chloro-4-(trifluoromethyl)phenyl]sulfonyl}octahydrocyclopenta[c]pyrrol-4-yl)-N-methyl-L-phenylalaninamide [Example 432]	
	N-[(3aS*,4R*,6aR*)-2-benzyloctahydrocyclopenta[c]pyrrol-4-yl]-2-cyclohexyl-2-phenylacetamide [Example 4]	3500
1750	N-methyl-N-((3aR,4S,6aS)-2-{[4-(trifluoromethyl)phenyl]sulfonyl}octahydrocyclopenta[c]pyrrol-4-yl)-L-phenylalaninamide [Example 430]	
